We go through eleven compounds from US10053485B2, “Cytotoxic agents that preferentially target leukemia inhibitory factor (LIF) for the treatment of malignancies and as new contraceptive agents” (Evestra, Inc., priority 2015, dated 2018).

pIC50: −log10 of the molar value. Where two headings read alike, the source gives them in different places.

For data set [1], the system named is LIF-overexpressing MCF-7 (MCF-7 LIF) human breast cancer cells. Nature of the data set: LIF specificity assay, LIF-overexpressing cells. In kind it is cell-based.
In data set [2] the test system is MDA-MB-231 (TNBC cells). Nature of the data set: Short term (72 h) cytotoxicity assay. In kind it is cell-based. Conditions: Homo sapiens; MDA-MB-231, 72 h cytotoxicity.
Data set [3] concerns IGROV-1 (Ovarian cancer cells). Nature of the data set: Short term (72 h) cytotoxicity assay. The class given is cell-based. The settings on record: Homo sapiens; IGROV-1, 72 h cytotoxicity.
In data set [4] the test system is U87-MU (Glioma cells). Briefly: Short term (72 h) cytotoxicity assay. In kind it is cell-based.
Data set [5] concerns unmodified MCF-7 human breast cancer cells. Briefly: LIF specificity assay, unmodified cells. The class given is cell-based.
For data set [6], the system named is T47D (ER+ PR+ Breast Cancer). Nature of the data set: Short term (72 h) cytotoxicity assay. In kind it is cell-based. The settings on record: Homo sapiens.
Data set [7] relates to U251 (Glioma). Nature of the data set: Short term (72 h) cytotoxicity assay. The class given is cell-based, human. Conditions: U251, 72 h cytotoxicity.
Data set [8] relates to A549 (Lung cancer). Briefly: Short term (72 h) cytotoxicity assay. The class given is cell-based, human. Conditions: A549, 72 h cytotoxicity.
Data set [9] deals with various cancer cells lines. Nature of the data set: Cytotoxicity assays in various cancer cell lines. The settings on record: in words. The class given is cell-based. On the procedure: Briefly, 5×10^3 cells were seeded in 96-well plates and incubated with compounds (0.0001-10 μmol/L) or dimethyl sulfoxide (DMSO; 0.02% v/v) for 24, 48, and 72 hours at 37° C. and cell viability was measured using a Fluoroscan plate reader.

For data set [10], the system named is human umbilical vein endothelial cells (HUVEC). Nature of the data set: Matrigel in vitro HUVECs tube formation assay (angiogenesis). The settings on record: 1 μM concentration, all measured time points. The class given is cell-based. How it is done: Matrigel in vitro HUVECs tube formation assay: The tube formation assay was performed using 12-well plate coated with 100 μL Matrigel basement membrane matrix (BD Bioscience) per well and polymerized at 37° C. for 30 min. Human umbilical vascular endothelial cells (HUVECs) suspended in M199 medium containing 2% FBS were plated on the Matrigel at a density of 2×10^5 cells/well. […] After 8 h, the Matrigel-induced morphological changes were photographed and the extent of capillary tube formation was evaluated by measuring the total tube length per field.

Data set [11] concerns Ishikawa (Endometrial Cancer). Nature of the data set: Short term (72 h) cytotoxicity assay. In kind it is cell-based. Conditions: Homo sapiens.
The test system of data set [12] is Patient derived tumor (melanoma): p53, LIF, MDM2, pSTAT3, Ki67. Nature of the data set: Immunohistochemistry analysis of patient derived tumor. The class given is cell-based, human. Conditions: 10 nM and 1 uM for 5 days, FIG. 10. How it is done: Patient derived tumor (melanoma) was treated with the compounds at 10 nM and 1 uM for 5 days in RPMI medium and harvested on day 6 using established protocol and immunohistochemistry was performed for different antibodies including p53, LIF, MDM2, pSTAT3, Ki67.

The subject of data set [13] is MCF-7 (ER+ Breast Cancer). Briefly: Short term (72 h) cytotoxicity assay. In kind it is cell-based. The settings on record: Homo sapiens, MCF7; MCF-7, 72 h cytotoxicity.
Data set [14] relates to human endometrial stromal cells (HESC). Nature of the data set: Decidualization assay, actin cytoskeleton by phalloidin staining. Conditions: FIG. 3. The class given is cell-based. On the procedure: Decidualization studies: The above compounds were investigated originally for the treatment of endometriosis. The compounds were tested in a decidualization assay using human endometrial stromal fibroblast (HESC) cells. In preparation for the possibility of embryonic attachment, the stromal cells in the endometrium undergo extensive waves of proliferation, remodeling, and terminal differentiation that transforms the endometrium into an endocrine gland, called decidua. This transformation is called decidualization and it is under the control by ovarian hormones.
The level of apoptosis increases from the proliferative phase through menstrual cycle and peaks at menses. […] However if the cells are subjected to conditions that induce decidualization, stromal cells will begin to differentiate instead of undergoing apoptosis.
Briefly, human stromal endometrial cells were plated in the presence and absence of progesterone and allow undergoing decidualization. The cells treated with test compounds of different concentrations and stained for actin cytocketal morphology using phalloidin staining and monitored under fluorescent microscope.

Data set [15] has as its system LNCaP (AR+ Prostate). Nature of the data set: Short term (72 h) cytotoxicity assay. In kind it is cell-based.
In data set [16] the test system is MDM2 / P53 in MCF-7 cells. Briefly: P53 / MDM2 levels in MCF-7 cells (FIG. 5). The class given is cell-based, human.
Data set [17] concerns T47D breast cancer cells. Nature of the data set: Soft agar colony formation assay. The class given is cell-based, human. On the procedure: Colonies of cancer cells formed in soft agar in the presence and absence of the testing compounds is a standard assay to interpret in-vitro tumorigenic potential in the basal layer. Agar was prepared by mixing 1% DNA grade agar melted and cooled to 40° C. with an equal volume of (2×) Dulbecco's Modified Eagle's Medium (DMEM) to obtain 0.5% agar that was dispersed in a 6-well plate and allowed to solidify. A total of 0.6% agar was prepared in RPMI medium and mixed together with T47D cells (0.5×10^6 cells/mL) and immediately plated on the basal layer in the presence or absence of testing compounds. The cultures were incubated at 37° C. in a CO2 incubator for 2 weeks, and colonies were stained with 0.005% crystal violet and observed under a light microscope.

In data set [18] the test system is PC3 (AR− Prostate Cancer). Briefly: Short term (72 h) cytotoxicity assay. The class given is cell-based. The settings on record: Homo sapiens, PC3, 72 h cytotoxicity.
The mark [19] stands for this setting: Homo sapiens, MCF7, cytotoxicity.
[20] abbreviates: Homo sapiens, MCF7, cytotoxicity, LIF-overexpressing MCF-7, read-out: MCF-7 LIF IC50.

Turning to `C#CC(F)(F)[C@]1(O)CC[C@H]2[C@@H]3CCC4=CC(=O)CCC4=C3[C@@H](c3ccc(-c4c(C)cc(C)cc4C)cc3)C[C@@]21C` [EC359, 17α-(1,1-difluoro-2-propyn-1-yl)-17β-hydroxy-11β-[4-p-(2,4,6-trimethylphenyl)phenyl]estra-4,9-dien-3-one], the pIC50 in data set [1] (Homo sapiens, MCF7, read-out: MCF-7 LIF IC50) was 7.52; in [2] it was 7.52; in data set [3], 7.60; in data set [4] (Glioma cell) it was 8.00; in data set [5] (setting [19]), 6.62.
For `C#CC(F)(F)[C@]1(O)CCC2C3CCC4=CC(=O)CCC4=C3C(c3ccc(S(=O)(=O)C4CC4)cc3)C[C@@]21C` (stereo partly drawn) [EC361, 17α-(1,1-difluoro-2-propyn-1-yl)-17β-hydroxy-11β-[4-p-(cyclopropylsulfonyl)phenyl]estra-4,9-dien-3-one], the negative logarithm of the IC50 (pIC50) in [1] (setting [20]) is 6.30; in data set [2] it was 6.12; in [3], 6.46; in data set [4] (Glioma cell) it was 6.64; in [5] (setting [19]), below 5.00.
As to `C#CC(F)(F)[C@]1(O)CCC2C3CCC4=CC(=O)CCC4=C3C(c3ccc(C4CCCCC4)cc3)C[C@@]21C` (stereo partly drawn) [EC360, 17α-(1,1-difluoro-2-propyn-1-yl)-17β-hydroxy-11β-[4-p-(cyclohexyl)phenyl]estra-4,9-dien-3-one], the pIC50 in [1] (setting [20]) is 6.60; in data set [2], 7.40; in data set [3] it was 7.66; in data set [4] (Glioma cell), 7.14; in data set [5] (setting [19]), 6.30.
Regarding `C#CC(F)(F)[C@]1(O)CCC2C3CCC4=CC(=O)CCC4=C3C(c3ccc(CCCCCCC)cc3)C[C@@]21C` (stereo partly drawn) [EC362, 17α-(1,1-difluoro-2-propyn-1-yl)-17β-hydroxy-11β-[4-p-(n-heptyl)phenyl]estra-4,9-dien-3-one], the pIC50 was 7.60 in data set [6], 7.60 in data set [1] (setting [20]), 8.12 in data set [3] and 7.30 in [5] (setting [19]).
On to `C#CC(F)(F)[C@]1(O)CCC2C3CCC4=CC(=O)CCC4=C3C(c3ccc(OC)cc3)C[C@@]21C` (stereo partly drawn) [EC356, 17α-(1,1-difluoro-2-propyn-1-yl)-17β-hydroxy-11β-[4-p-(methoxy)phenyl]estra-4,9-dien-3-one], for which the negative logarithm of the IC50 (pIC50) is 6.60 in [1] (setting [20]); 7.35 in [7] (Homo sapiens, U-251); 7.40 in data set [8] (Homo sapiens); 7.35 in data set [4] (Glioma cell); 6.30 in data set [5] (setting [19]).
`C#CC(F)(F)[C@]1(O)CCC2C3CCC4=CC(=O)CCC4=C3C(c3ccc(C(C)(C)C)cc3)C[C@@]21C` (stereo partly drawn) [EC357, 17α-(1,1-difluoro-2-propyn-1-yl)-17β-hydroxy-11β-[4-p-(t-butyl)phenyl]estra-4,9-dien-3-one]: the melting point lay in the range of 127 to 129 °C. For the same compound, the pIC50 in [7] (Homo sapiens, U-251) was 7.52. The same compound gave a negative-log IC50 (pIC50) in data set [8] (Homo sapiens) of 7.46. This compound showed a pIC50 in data set [4] (Glioma cell) of 7.46.
On to `C#CC(F)(F)[C@]1(O)CCC2C3CCC4=CC(=O)CCC4=C3C(c3ccc(C(=C)C)cc3)C[C@@]21C` (stereo partly drawn) [EC358, 17α-(1,1-difluoro-2-propyn-1-yl)-17β-hydroxy-11β-[4-p-(1-methylethenyl)phenyl]estra-4,9-dien-3-one], for which the pIC50 in data set [1] (setting [20]) is 7.30; in data set [2], 7.40; in data set [3] it was 7.46; in [4] (Glioma cell), 7.60; in data set [5] (setting [19]), 7.00.
In the case of `C#CC(F)(F)[C@]1(O)CCC2C3CCC4=CC(=O)CCC4=C3C(c3ccc(N(C)C)cc3)C[C@@]21C` (stereo partly drawn) [EC352, 17α-(1,1-difluoro-2-propyn-1-yl)-17β-hydroxy-11β-[4-p-(dimethylamino)phenyl]estra-4,9-dien-3-one], the “Fold Change” value in data set [1] (MCF-7 vs. MCF-7 LIF cytotoxicity (specificity towards LIF)) is on record as 0. The negative-log IC50 (pIC50) was below 5.00 in data set [1] (cytotoxicity, LIF-overexpressing MCF-7, read-out: MCF-7 LIF IC50); 7.40 in data set [7]; 7.35 in [8]; 7.30 in data set [4]; below 5.00 in data set [5] (cytotoxicity).
Regarding `C#CC(F)(F)[C@]1(O)CCC2C3CCC4=CC(=O)CCC4=C3C(c3ccc(C(C)=O)cc3)C[C@@]21C` (stereo partly drawn) [EC332, 17α-(1,1-difluoro-2-propyn-1-yl)-17β-hydroxy-11β-[4-p-(acetyl)phenyl]estra-4,9-dien-3-one], the pIC50 was 6.70 in data set [6]; 8.00 in data set [11]; 7.35 in data set [13]; 7.40 in [7] (Homo sapiens, U-251); 6.96 in data set [2]; 7.02 in data set [15]. In addition, the pIC50 in data set [8] (Homo sapiens) was 7.12; in data set [4] (Glioma cell), 7.05; in [18], 6.52. Besides, the “IC50's in cytotoxicity assays” value in [9] is listed as “low nanomolar”. Moreover, the tube formation entry in data set [10] is on record as “complete abrogation”. Besides, in [12], the “apoptosis, p53, MDM2, LIF mediated STAT3 phosphorylation (immunohistochemistry)” value is “induce apoptosis and restore p53 by inhibiting MDM2 and LIF mediated STAT3 phosphorylation”. The “actin / alpha-smooth muscle mediated cytoskeletal disruption of fibroblast” value in data set [14] is given as “cytoskeletal disruption”. Also, the “P53 levels / MDM2” value in [16] is recorded as “restore P53 levels by inhibiting MDM2”. The “inhibition in the number of colonies formed” value in data set [17] (100 nM concentration, in words) is recorded as “complete inhibition”. The inhibition at 0.005 µM in data set [17] (Homo sapiens, T47D, 5 nM concentration, read-out: inhibition in the number of colonies formed) amounted to 50%.
For `C#CC(F)(F)[C@]1(O)CCC2C3CCC4=CC(=O)CCC4=C3C(c3ccc(-n4ccnc4)cc3)C[C@@]21C` (some centres unmarked) [EC351], the melting point lay within 175 to 178 °C. The compound further gave a pIC50 in data set [7] (Homo sapiens, U-251) of 6.30.
For `C#CC(F)(F)[C@]1(O)CCC2C3CCC4=CC(=O)CCC4=C3C(c3ccc(SC)cc3)C[C@@]21C` (stereo partly drawn) [EC363, 17α-(1,1-difluoro-2-propyn-1-yl)-17β-hydroxy-11β-[4-p-(methylthio)phenyl]estra-4,9-dien-3-one], the negative-log IC50 (pIC50) in data set [3] and in data set [4] (Glioma cell) was 7.52 in each case.
